{"source": "paper PMC5750218", "about": "“Protein-inspired antibiotics active against vancomycin- and daptomycin-resistant bacteria” (Nature Communications, 2018)", "key": {"[1]": {"test_system": "Vancomycin-intermediate S. aureus NRS1", "test": "microbe, parasite or virus in culture", "experimental": "(§1) Antimicrobial activity of compounds was tested against a number of bacterial strains by broth microdilution (BMD) assay with MIC determination, including S. aureus (MSSA ATCC® 29213™, MRSA ATCC® 43300™, VISA NARSA NRS1, VISA NARSA NRS4), Streptococcus pneumoniae (MDR ATCC® 700677™) and Enterococcus faecium (MDR VanA ATCC® 51559™). ATCC strains were sourced from the American Type Culture Collection and NRS strains from NARSA (Network on Antimicrobial Resistance in S. aureus) via BEI Resources (www.beiresources.org). All compounds were prepared to 160 µg mL^−1 solution in water from a stock solution of 1 mM concentration.\n(§2) The compounds, along with standard antibiotics were serially diluted twofold across the wells of 96-well non-binding surface (NBS) polystyrene plates (Corning 3641). […] Standards ranged from 64 to 0.03 µg mL^−1 and compounds from 8 to 0.003 µg mL^−1 with final assay volumes of 100 µL per well. Gram-positive bacteria were cultured in Mueller Hinton broth (MHB) (Bactolaboratories, Cat. no. 211443) at 37 °C overnight. A sample of each culture was then diluted 40-fold in fresh MHB and incubated at 37 °C for 2–3 h. […] All the plates were covered and incubated at 37 °C for 24 h. MICs were the lowest concentration showing no visible growth."}, "[2]": {"test_system": "Multi-drug-resistant S. pneumoniae ATCC 700677", "test": "microbe, parasite or virus in culture", "experimental": "as §1, §2"}, "Cytotoxicity MTT assay [3]": {"test": "Cytotoxicity MTT assay", "format": "cell-based, human", "details": "human", "experimental": "(§3) Compound cytotoxicity was evaluated against HepG2 (ATCC-®HB-8065 liver hepatoceullular carcinoma) and HEK293 (ATCC®CRL-1573, embryonic kidney) human cell lines using standard (3-(4,5-dimethylthiazol-2-yl)−2,5-diphenyltetrazolium bromide (MTT) assay protocol with slight changes. In brief, HepG2 and HEK293 cells (assessed annually for mycoplasma contamination) were seeded as 1.5 × 10^4 cells per well in a clear 96-well tissue culture treated plate in a final volume of 100 μL in Dulbecco’s Modified Eagle Medium (DMEM)(GIBCO-Invitrogen #11995-073), in which 1% of FBS was added. Cells were incubated for 24 h at 37 °C, 5% CO2 to allow cells to attach to the plates. Compounds prepared at 100 µM to 0.046 µM in threefold dilutions were added into each well and incubated for 24 h at 37 °C, 5% CO2. After the incubation, 0.4 mg mL^−1 MTT (3-(4,5-dimethylthiazol-2-yl)−2,5-diphenyltetrazolium bromide) (Invitrogen) was added to each well. The plates were then incubated for 2 h at 37 °C, 5% CO2. The media was removed, and purple formazan crystals were resuspended in 60 μL of DMSO. The absorbance was read at 570 nm using a Polarstar Omega plate reader. The data was then analysed by Prism software. Results are presented as the average percentage of control ± S.D. for each set of duplicate wells using the following equation: percent viability = (ABSTEST – ABSPOSITIVE CTRL / ABSUNTREATED –ABS POSITIVE CTRL)×100."}, "[4]": {"test_system": "Methicillin-resistant S. aureus ATCC 43300", "test": "microbe, parasite or virus in culture", "experimental": "as §1\nas §2, with “The compounds, along with standard antibiotics were serially diluted twofold across the wells of 96-well non-binding surface (NBS) polystyrene plates (Corning 3641).” left out"}, "Cytotoxicity MTT assay [5]": {"test": "Cytotoxicity MTT assay", "format": "cell-based, human", "details": "human", "experimental": "as §3, with “Compounds prepared at 100 µM to 0.046 µM in threefold dilutions were added into each well and incubated for 24 h at 37 °C, 5% CO2.” left out", "remark": "listed apart in the source"}, "[6]": {"test_system": "Vancomycin-resistant (VanA) Enterococcus faecium ATCC 51559", "test": "microbe, parasite or virus in culture", "experimental": "as §1, §2"}, "[7]": {"test_system": "Bacillus subtilis ATCC 6633", "test": "microbe, parasite or virus in culture", "format": "cell-based", "details": "for Ac2Kaa concentration required to neutralise MIC activity / MIC: ATCC 6633, 48 h; for Molar excess of Ac2Kaa ligand required to antagonise antibacterial activity: [ligand]/[antibiotic], B. subtilis ATCC 6633, 24 h", "experimental": "All compounds were dissolved in H2O. Bacillus subtilis ATCC® 6633™ NRS-231 was cultured in MHB at 37 °C for 48 h. A sample of each culture was then diluted 40-fold in fresh MHB and incubated at 37 °C for 18 h. Compounds were added to each row of 96-well NBS plates (NBS, Corning 3641), in duplicate. The tripeptide N,N΄-diacetyl-L-Lys-D-Ala-D-Ala was serially diluted twofold across the compound-containing wells from 6400 to 3 µg mL^−1. To this the resultant mid-log phase cultures were diluted to the final concentration of 5 × 10^5 CFU mL^−1, then added to wells of the compound-containing plates. All the plates were covered and incubated at 37 °C for 24 h."}}, "note": "Where “and” joins values, the source holds several entries; their conditions need not be identical. Equal entries are not always repeated.", "data": [{"molecule": "CCCCCCCCCCCCCC(=O)NCC(=O)N[C@@H](CO)C(=O)N[C@@H](CCCCN)C(=O)N[C@@H](CCCCN)C(=O)N[C@@H](CCCCN)C(=O)N[C@@H](CCCCNC(=O)[C@H]1NC(=O)[C@H]2NC(=O)[C@H](NC(=O)[C@@H]3NC(=O)[C@H](CC(N)=O)NC(=O)[C@H](NC(=O)[C@@H](CC(C)C)NC)[C@H](O)c4ccc(c(Cl)c4)Oc4cc3cc(c4O[C@@H]3O[C@H](CO)[C@@H](O)[C@H](O)[C@H]3O[C@H]3C[C@](C)(N)[C@H](O)[C@H](C)O3)Oc3ccc(cc3Cl)[C@H]2O)c2ccc(O)c(c2)-c2c(O)cc(O)cc21)C(=O)O", "note": "[Compound 16, nC13CO-GSKKK-K(Vancomycin)-OH]", "values": [{"measurement": "MIC VISA", "setting": "[1]; Vancomycin-intermediate NRS1", "value": 0.007, "unit": "µg/mL"}, {"measurement": "MIC MDR S.P.", "setting": "[2]; ATCC 700677", "value": "<0.003", "unit": "µg/mL"}, {"measurement": "CC50 at 24 h", "setting": "Cytotoxicity MTT assay [3]", "value": 53, "unit": "µM"}, {"measurement": "MIC MRSA", "setting": "[4]; ATCC 43300, 24 h", "value": 0.06, "unit": "µg/mL"}, {"measurement": "CC50 at 24 h", "setting": "Cytotoxicity MTT assay [5]", "value": 18, "unit": "µM"}]}, {"molecule": "CCCCCCCCCCCCC(=O)N[C@@H](CCCCN)C(=O)N[C@@H](CCCCN)C(=O)N[C@@H](CCCCN)C(=O)N[C@@H](CCCCNC(=O)[C@H]1NC(=O)[C@H]2NC(=O)[C@H](NC(=O)[C@@H]3NC(=O)[C@H](CC(N)=O)NC(=O)[C@H](NC(=O)[C@@H](CC(C)C)NC)[C@H](O)c4ccc(c(Cl)c4)Oc4cc3cc(c4O[C@@H]3O[C@H](CO)[C@@H](O)[C@H](O)[C@H]3O[C@H]3C[C@](C)(N)[C@H](O)[C@H](C)O3)Oc3ccc(cc3Cl)[C@H]2O)c2ccc(O)c(c2)-c2c(O)cc(O)cc21)C(=O)O", "note": "[Compound 38, nC12CO-KKK-K-(Vancomycin)-OH]", "values": [{"measurement": "MIC VISA", "setting": "[1]; Vancomycin-intermediate NRS1", "value": 0.03, "unit": "µg/mL"}, {"measurement": "MIC VRE", "setting": "[6]; ATCC 51559", "value": 0.1875, "unit": "µg/mL"}, {"measurement": "MIC MDR S.P.", "setting": "[2]; ATCC 700677", "value": "<0.003", "unit": "µg/mL"}, {"measurement": "MIC MRSA", "setting": "[4]; ATCC 43300, 24 h", "value": "<0.003", "unit": "µg/mL"}]}, {"molecule": "CCCCCCCCCCC(=O)NCC(=O)N[C@@H](CO)C(=O)N[C@@H](CCCCN)C(=O)N[C@@H](CCCCN)C(=O)N[C@@H](CCCCN)C(=O)N[C@@H](CCCCNC(=O)[C@H]1NC(=O)[C@H]2NC(=O)[C@H](NC(=O)[C@@H]3NC(=O)[C@H](CC(N)=O)NC(=O)[C@H](NC(=O)[C@@H](CC(C)C)NC)[C@H](O)c4ccc(c(Cl)c4)Oc4cc3cc(c4O[C@@H]3O[C@H](CO)[C@@H](O)[C@H](O)[C@H]3O[C@H]3C[C@](C)(N)[C@H](O)[C@H](C)O3)Oc3ccc(cc3Cl)[C@H]2O)c2ccc(O)c(c2)-c2c(O)cc(O)cc21)C(=O)O", "note": "[Compound 39, nC10CO-GSKKK-K-(Vancomycin)-OH]", "values": [{"measurement": "Ac2Kaa concentration required to neutralise MIC activity", "setting": "[7]", "value": 400, "unit": "µg/mL"}, {"measurement": "MIC", "setting": "[7]", "value": 0.06, "unit": "µg/mL"}, {"measurement": "Molar excess of Ac2Kaa ligand required to antagonise antibacterial activity", "setting": "[7]", "value": "30,569"}]}, {"molecule": "CN[C@H](CC(C)C)C(=O)N[C@H]1C(=O)N[C@@H](CC(N)=O)C(=O)N[C@H]2C(=O)N[C@H]3C(=O)N[C@H](C(=O)N[C@H](C(=O)NCCCC[C@H](NC(=O)[C@H](CCCCN)NC(=O)[C@H](CCCCN)NC(=O)[C@H](CCCCN)NC(=O)c4ccc(Oc5ccccc5)cc4)C(=O)O)c4cc(O)cc(O)c4-c4cc3ccc4O)[C@H](O)c3ccc(c(Cl)c3)Oc3cc2cc(c3O[C@@H]2O[C@H](CO)[C@@H](O)[C@H](O)[C@H]2O[C@H]2C[C@](C)(N)[C@H](O)[C@H](C)O2)Oc2ccc(cc2Cl)[C@H]1O", "note": "[Compound 40, POB-KKK-K-(Vancomycin)-OH]", "values": [{"measurement": "Ac2Kaa concentration required to neutralise MIC activity", "setting": "[7]", "value": 12.5, "unit": "µg/mL"}, {"measurement": "MIC", "setting": "[7]", "value": 0.03, "unit": "µg/mL"}, {"measurement": "Molar excess of Ac2Kaa ligand required to antagonise antibacterial activity", "setting": "[7]", "value": 916}]}, {"molecule": "CN[C@H](CC(C)C)C(=O)N[C@H]1C(=O)N[C@@H](CC(N)=O)C(=O)N[C@H]2C(=O)N[C@H]3C(=O)N[C@H](C(=O)N[C@H](C(=O)NCCCC[C@H](NC(=O)[C@H](CCCCN)NC(=O)[C@H](CCCCN)NC(=O)c4ccc(Oc5ccccc5)cc4)C(=O)O)c4cc(O)cc(O)c4-c4cc3ccc4O)[C@H](O)c3ccc(c(Cl)c3)Oc3cc2cc(c3O[C@@H]2O[C@H](CO)[C@@H](O)[C@H](O)[C@H]2O[C@H]2C[C@](C)(N)[C@H](O)[C@H](C)O2)Oc2ccc(cc2Cl)[C@H]1O", "note": "[Compound 41, POB-KK-K-(Vancomycin)-OH]", "values": [{"measurement": "Ac2Kaa concentration required to neutralise MIC activity", "setting": "[7]", "value": 1.56, "unit": "µg/mL"}, {"measurement": "MIC", "setting": "[7]", "value": 0.06, "unit": "µg/mL"}, {"measurement": "Molar excess of Ac2Kaa ligand required to antagonise antibacterial activity", "setting": "[7]", "value": 104}]}, {"molecule": "CN[C@H](CC(C)C)C(=O)N[C@H]1C(=O)N[C@@H](CC(N)=O)C(=O)N[C@H]2C(=O)N[C@H]3C(=O)N[C@H](C(=O)N[C@H](C(=O)NCCCC[C@H](NC(=O)[C@H](CCCCN)NC(=O)[C@H](CCCCN)NC(=O)[C@H](CCCCN)NC(=O)[C@H](CCCCNC(=O)c4ccc(Oc5ccccc5)cc4)NC(=O)c4ccc(Oc5ccccc5)cc4)C(=O)O)c4cc(O)cc(O)c4-c4cc3ccc4O)[C@H](O)c3ccc(c(Cl)c3)Oc3cc2cc(c3O[C@@H]2O[C@H](CO)[C@@H](O)[C@H](O)[C@H]2O[C@H]2C[C@](C)(N)[C@H](O)[C@H](C)O2)Oc2ccc(cc2Cl)[C@H]1O", "note": "[Compound 42, POB2K-KKK-K-(Vancomycin)-OH]", "values": [{"measurement": "Ac2Kaa concentration required to neutralise MIC activity", "setting": "[7]", "value": 1600, "unit": "µg/mL"}, {"measurement": "MIC", "setting": "[7]", "value": "≤ 0.004", "unit": "µg/mL"}, {"measurement": "Molar excess of Ac2Kaa ligand required to antagonise antibacterial activity", "setting": "[7]", "value": "131,225"}]}, {"molecule": "POB2K-Dap-K-K(Vancomycin)-NHMe [Compound 28]", "values": [{"measurement": "MIC VISA", "setting": "[1]; S. aureus NRS1", "value": "0.125 µg/mL and 0.155 µg/mL"}, {"measurement": "MIC VRE", "setting": "[6]; E. faecium MDR VanA ATCC 51559, substance alone", "value": 0.75, "unit": "µg/mL"}, {"measurement": "MIC MDR S.P.", "setting": "[2]; S. pneumoniae ATCC 700677", "value": "0.015 µg/mL and 0.011 µg/mL"}, {"measurement": "MIC MRSA", "setting": "[4]; S. aureus ATCC 43300, NBS plates, MHB, 24 h, substance alone", "value": "<0.003 µg/mL and 0.0045 µg/mL"}]}]}
